# Test results published in patent publication US4874749A, “4"-Deoxy-4-N-methylamino avermectin Bla/Blb” (Merck & Co., Inc., priority 1987, dated 1989).
# What was measured:
# Type in all cases: in vivo
# [1] = system: Heliothis virescens larvae; test: Contact toxicity study against Heliothis virescens larvae
# Heliothis zea larvae [2] = test: Contact toxicity study against Heliothis zea larvae; details: 96 hours
# southern armyworm = test: LD90 test against southern armyworm (micrograms/GWT); details: GWT = Gram Weight of the Test insect
# From the text: (§1) For example, tests have been carried out in which the instant compound was compared with avermectin Bla/Blb (avermectin the starting material for the instant compound) and 4"-deoxy-4"-amino avermectin Bla/Blb. […] Expressed another way, 4"-deoxy-4"-amino avermectin Bla/Blb was 60% effective at 0.5 micrograms/GWT against southern armyworm while 4"-deoxy-4"-epi-N-methylamino avermectin Bla/Blb was 90% effective at 0.125 micrograms/GWT against the same parasite.
# Daphnia magna = test: Acute toxicity to Daphnia magna
# Protocol: In one test of the instant compound (see Example 5) and closely related avermectin compounds against Daphnia magna, described as a 48 hour LC50 test, that is, the concentration of compound which is fatal to 50% of Daphnia magna over a 48 hour period, it was observed that avermectin Bla/Blb has an LC50 of 300 ppt (parts per trillion); and 4"-deoxy-4"-amino avermectin Bla/Blb has an LC50 of 600 ppt.
# Ten Dahpnia magna (first instar less than 24 hours old) were placed in a 250 ml glass beaker containing 200 ml of an aqueous solution of the test compounds in concentrations from 1.0 to 10 microgram/liter (ppb). The test compounds were dissolved in a small volume of acetone for dilution with water. The solvent control contained 0.010 ml of acetone which is equivalent to the highest test concentration. A control and solvent control was added to the experiment which was conducted in two replicates. All concentrations were observed once at 24 and 48 hours for mortality and abnormal effects such as surfacing, clumping of the daphnids together and daphnids lying on the bottom of the beakers.
# tobacco budworm = test: LD90 test against tobacco budworm (micrograms/GWT); details: GWT = Gram Weight of the Test insect
# From the text: as §1
# Heliothis zea larvae [3] = test: Foliar ingestion toxicity against Heliothis zea larvae
# [4] = system: Bluegill Sunfish (Lepomis macrochirus); test: Acute toxicity to Bluegill Sunfish
# Protocol: The same test procedure was used as described in example 6, except that Bluegill Sunfish were used and that the test vessels were kept in a water bath at 22° C.
# [5] = system: Heliothis virescens larvae; test: Foliar ingestion toxicity study against Heliothis virescens larvae
# [6] = system: Spodoptera eridania larvae; test: Contact toxicity study against Spodoptera eridania larvae; details: 96 hours, in microgram per gram body weight (BTI 159)
# Protocol: In a contact toxicity study against Spodoptera eridania larvae 4"-deoxy-4"-epimethylamino avermectin Bla/Blb was 4 times more toxic than 4"-deoxy-4"-epiamino avermectin Bla/Blb as measured at 96 hours in microgram per gram body weight. (BTI 159).
# [7] = system: Spodoptera eridania larvae; test: Foliar ingestion toxicity study against Spodoptera eridania larvae
# [8] = system: Rainbow Trout (Salmo gairdneri); test: Acute toxicity to Rainbow Trout, static fish bioassay
# Protocol: The static fish bioassay was conducted in five gallon glass vessels containing 15 liters of soft reconstituted water composed of the following compounds in the amounts stated per liter of deionized water:
# This reconstituted water was prepared to yield a total hardness of 40-48 mg/l as CaCO3, a total alkalinity of 20-30 mg/l as CaCO3 and an initial pH of 7.2 to 7.6. The 0-hour measured control water parameters of this dilution water were dissolved oxygen 9.7 mg/l and pH 7.4.
# The test vessels were kept in a water bath at 12° C. The test fish were acclimated to the dilution water and test temperature and held without food for 48-96 hours prior to testing.
# Based on the results of preliminary testing, six concentrations of the test compound with ten fish per concentration were selected for the definitive bioassay. The definitive test concentrations were obtained by transferring appropriate aliquots of a working standard directly to the test chambers. The working standard was prepared in dimethylformamide (DMF). Also included was a dilution water control and a solvent control chamber.
# The fish were added to the test chambers by random assignment within 30 minutes after addition of test material. All test organisms were observed once every 24 hours for mortality and abnormal (sub-lethal) effects. any dead individuals were removed from the test chambers after each 24-hour observation. The LC50 statistic and its 95 percent confidence limits were calculated by employing a computerized standard program.
# [9] = 0.04 microgram/gram body weight
# [10] = 48 hour, ppt = parts per trillion
# [11] = 24 hr, nominal concentration 0.056 mg/l
# [12] = 24 hr, nominal concentration 0.10 mg/l
# [13] = 24 hr, nominal concentration 0.18 mg/l
# [14] = 24 hr, nominal concentration 0.32 mg/l
# [15] = 24 hr, nominal concentration 0.56 mg/l
# [16] = 24 hr, nominal concentration 1.0 mg/l
# [17] = 48 hr, nominal concentration 0.056 mg/l
# [18] = 48 hr, nominal concentration 0.10 mg/l
# [19] = 48 hr, nominal concentration 0.18 mg/l
# [20] = 48 hr, nominal concentration 0.32 mg/l
# [21] = 48 hr, nominal concentration 0.56 mg/l
# [22] = 48 hr, nominal concentration 1.0 mg/l
# [23] = 96 hr, nominal concentration 0.056 mg/l
# [24] = 96 hr, nominal concentration 0.10 mg/l
# [25] = 96 hr, nominal concentration 0.18 mg/l
# [26] = 96 hr, nominal concentration 0.32 mg/l
# [27] = 96 hr, nominal concentration 0.56 mg/l
# [28] = 96 hr, nominal concentration 1.0 mg/l
substance,measurement,setting,value
"4""-deoxy-4""-epiamino avermectin Bla/Blb [reference compound]",mortality,[1]; 0.1 microgram/g body weight,5%
same,mortality,[1]; 0.4 microgram/g body weight,30%
same,mortality,Heliothis zea larvae [2]; [9],0%
same,mortality,Heliothis zea larvae [2]; 0.4 microgram/g body weight,90%
same,mortality,Heliothis zea larvae [2]; 4.0 microgram/gram body weight,100%
"4""-deoxy-4""-amino avermectin Bla/Blb [reference compound]",LD90 (Lethal Dose for 90% of the insects),southern armyworm,3.4 micrograms/GWT
same,LC50,Daphnia magna; [10],600 ppt
same,LC50,Daphnia magna; 48 hours,0.6 micrograms/l
same,LD90 (Lethal Dose for 90% of the insects),tobacco budworm,1.3 micrograms/GWT
"4""-Deoxy-4""-epi-methylaminoavermectin Bla/Blb",LD90 (Lethal Dose for 90% of the insects),southern armyworm,0.542 micrograms/GWT
same,mortality,[1]; 0.1 microgram/g body weight,25%
same,mortality,[1]; 0.4 microgram/g body weight,100%
same,LC90,Heliothis zea larvae [3],0.002 ppm
same,times more toxic than avermectin Bla/Blb (LC90),Heliothis zea larvae [3],105 times
same,mortality,Heliothis zea larvae [2]; [9],20%
same,mortality,Heliothis zea larvae [2]; 0.4 microgram/g body weight,100%
same,mortality,Heliothis zea larvae [2]; 4.0 microgram/gram body weight,100%
same,LC50,[4]; 24 hours,0.75 milligrams/liter (ppm)
same,Percent Mortality,[4]; [11],0%
same,Percent Mortality,[4]; [12],0%
same,Percent Mortality,[4]; [13],0%
same,Percent Mortality,[4]; [14],0%
same,Percent Mortality,[4]; [15],0%
same,Percent Mortality,[4]; [16],100%
same,LC50,[4]; 48 hours,0.45 milligrams/liter (ppm)
same,Percent Mortality,[4]; [17],0%
same,Percent Mortality,[4]; [18],0%
same,Percent Mortality,[4]; [19],0%
same,Percent Mortality,[4]; [20],0%
same,Percent Mortality,[4]; [21],90%
same,Percent Mortality,[4]; [22],100%
same,LC50,[4]; 96 hours,0.24 milligrams/liter (ppm)
same,Percent Mortality,[4]; [23],0%
same,Percent Mortality,[4]; [24],0%
same,Percent Mortality,[4]; [25],0%
same,Percent Mortality,[4]; [26],100%
same,Percent Mortality,[4]; [27],100%
same,Percent Mortality,[4]; [28],100%
same,LC90,[5],0.003 ppm
same,times more toxic than avermectin Bla/Blb (LC90),[5],43 times
same,Percent Mortality,"Daphnia magna; 24 hr, nominal concentration 1.0 microgram/l",0%
same,Percent Mortality,"Daphnia magna; 24 hr, nominal concentration 1.8 microgram/l",0%
same,Percent Mortality,"Daphnia magna; 24 hr, nominal concentration 3.2 microgram/l",20%
same,Percent Mortality,"Daphnia magna; 24 hr, nominal concentration 5.6 microgram/l",30%
same,Percent Mortality,"Daphnia magna; 24 hr, nominal concentration 10.0 microgram/l",90%
same,"times less toxic than the 4""-amino compound","Daphnia magna; 48 hour LC50, vs 4""-deoxy-4""-amino avermectin Bla/Blb",~5 times
same,times less toxic than the avermectin Bla/Blb compound,"Daphnia magna; 48 hour LC50, vs avermectin Bla/Blb",~10 times
same,LC50,Daphnia magna; [10],2900 ppt
same,LC50,Daphnia magna; 48 hours,2.9 micrograms/l
same,Percent Mortality,"Daphnia magna; 48 hr, nominal concentration 1.0 microgram/l",0%
same,Percent Mortality,"Daphnia magna; 48 hr, nominal concentration 1.8 microgram/l",5%
same,Percent Mortality,"Daphnia magna; 48 hr, nominal concentration 3.2 microgram/l",70%
same,Percent Mortality,"Daphnia magna; 48 hr, nominal concentration 5.6 microgram/l",95%
same,Percent Mortality,"Daphnia magna; 48 hr, nominal concentration 10.0 microgram/l",100%
same,"times more toxic than 4""-deoxy-4""-epiamino avermectin Bla/Blb",[6],4 times
same,LC90 (lethal concentration for 90% of the insects),[7],0.005 ppm
same,times more toxic than avermectin Bla/Blb (LC90),[7],1166 times
same,LD90 (Lethal Dose for 90% of the insects),tobacco budworm,0.4 micrograms/GWT
same,LC50,[8]; 24 hours,> 1.0 milligrams/liter (ppm)
same,Percent Mortality,[8]; [11],0%
same,Percent Mortality,[8]; [12],0%
same,Percent Mortality,[8]; [13],0%
same,Percent Mortality,[8]; [14],0%
same,Percent Mortality,[8]; [15],0%
same,Percent Mortality,[8]; [16],0%
same,LC50,[8]; 48 hours,> 1.0 milligrams/liter (ppm)
same,Percent Mortality,[8]; [17],0%
same,Percent Mortality,[8]; [18],0%
same,Percent Mortality,[8]; [19],0%
same,Percent Mortality,[8]; [20],0%
same,Percent Mortality,[8]; [21],0%
same,Percent Mortality,[8]; [22],0%
same,LC50,[8]; 96 hours,0.67 milligrams/liter (ppm)
same,Percent Mortality,[8]; [23],0%
same,Percent Mortality,[8]; [24],0%
same,Percent Mortality,[8]; [25],0%
same,Percent Mortality,[8]; [26],0%
same,Percent Mortality,[8]; [27],20%
same,Percent Mortality,[8]; [28],100%
avermectin Bla/Blb [reference compound],LD90 (Lethal Dose for 90% of the insects),southern armyworm,> 34.0 micrograms/GWT
same,LC90,Heliothis zea larvae [3],0.21 ppm
same,LC50,[4]; 24 hours,0.029 milligrams/liter (ppm)
same,LC50,[4]; 48 hours,0.019 milligrams/liter (ppm)
same,LC50,[4]; 96 hours,0.0096 milligrams/liter (ppm)
same,LC90,[5],0.128 ppm
same,LC50,Daphnia magna; [10],300 ppt
same,LC50,Daphnia magna; 48 hours,0.34 micrograms/l
same,LC90 (lethal concentration for 90% of the insects),[7],5.83 ppm
same,LD90 (Lethal Dose for 90% of the insects),tobacco budworm,> 1.3 micrograms/GWT
same,LC50,[8]; 24 hours,> 0.006 milligrams/liter (ppm)
same,LC50,[8]; 48 hours,0.0046 milligrams/liter (ppm)
same,LC50,[8]; 96 hours,0.0032 milligrams/liter (ppm)
